The subject of one assay is M. abscessus (MABSC). Put plainly: MIC against CF isolates (Example 7, Table 18). Format: cell-based, Mycobacterium abscessus complex. Conditions: Mycobacteroides abscessus.
In a further assay the test system is Actinomyces turicensis. As to the kind of experiment: MIC of baseline clinical isolates (Example 8). Format: cell-based. Conditions: Actinomyces turicensis baseline isolates (N′ = 1), central laboratory, mITT. Summed up: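 Isolates came from samples taken on Day 1 and at any later surgery at the index site: infected bone or tissue next to implants, deep infection-site swabs, and superficial tissue, wound closure or sinus tract. Local clinical laboratories analysed parallel sample sets to guide antibiotic treatment.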

Another assay concerns S. epidermidis. As to the kind of experiment: MIC of baseline clinical isolates (Example 8). It is filed as cell-based. To be noted: Staphylococcus epidermidis baseline isolates (N′ = 5), central laboratory, mITT. Summed up:
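Clinical microbiology is assessed at Day 1 and again whenever the index site undergoes surgery. Bone, adjacent tissue and swabs from deep and superficial locations are sampled, and a parallel set goes to the local site laboratory.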

Assay [1] concerns P. aeruginosa. To be noted: P. aeruginosa MMX 103 (ATCC 27853); cited from earlier work.
Assay [2] concerns P. aeruginosa. As to the kind of experiment: Broth microdilution MIC (Example 5). Format: cell-based, Pseudomonas aeruginosa. To be noted: Pseudomonas aeruginosa. The procedure: Test and Comparator Agents: The test agents were stored at room temperature until assayed. […] The stock solutions were allowed to stand for at least 1 hr prior to use to auto-sterilize.
TestMedia: Test media were prepared and stored in accordance with guidelines from CLSI (4, 6, 7).
Broth Microdilution MC Testing (Aerobic Bacteria and Yeast): The broth microdilution assay method employed for the susceptibility testing of aerobic bacteria (excluding N. gonorrhoeae which was evaluated by agar dilution) and yeast essentially followed the procedures described by CLSI (3, 4, 7, 8) and employed automated liquid handlers to conduct serial dilutions and liquid transfers. […] These would become the ‘mother plates’ from which ‘daughter’ or test plates would be prepared. The drugs (300 μL at 40× the desired top concentration in the test plates) were dispensed into the appropriate well in Column 1 of the mother plates. The Biomek 2000 was used to make serial two-fold dilutions through Column 11 in the “mother plate”. The wells of Column 12 contained no drug and ultimately served as the organism growth control wells.
The daughter plates were prepared using the Biomek FX which transferred 5 μL of drug solution from each well of a mother plate to the corresponding well of the correct daughter plate in a single step.
A standardized inoculum of each organism was prepared per CLSI methods (3, 7). Isolated colonies of each test isolate were picked from the primary plate and a suspension was prepared to equal a 0.5 McFarland turbidity standard. Standardized suspensions were then diluted […] (1:100 for yeast, 1:20 for bacteria). After dilution, the inoculum suspensions were then transferred to compartments of sterile reservoirs divided by length (Beckman Coulter), and the Biomek 2000 was used to inoculate all plates. Daughter plates were placed on the Biomek 2000 in reverse orientation so that plates were inoculated from low to high drug concentration.
The Biomek 2000 delivered 10 μL of standardized inoculum into each well of the appropriate daughter plate for an additional 1:20 dilution.
Plates were stacked 4 high, covered with a lid on the top plate, placed into plastic bags, and incubated at 35° C. for approximately 24-48 hr for all yeast isolates and 16-24 hr for aerobic bacteria. Plates were viewed from the bottom using a plate viewer. […] MIC endpoints for the test agents and control compounds were read per CLSI criteria (3, 7).
(Broth dilution looks for growth in wells or tubes with falling amounts of substance.)

For the next assay, the system named is N. gonorrhoeae. Put plainly: microbe, parasite or virus in culture. Conditions: Neisseria gonorrhoeae.
Another assay relates to S. aureus. Put plainly: Broth microdilution MIC (Example 5). It is filed as cell-based, Staphylococcus aureus. Conditions: Staphylococcus aureus. Summed up:
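CLSI broth microdilution with serial two-fold drug dilutions and a standardized inoculum from a 0.5 McFarland suspension. Bacteria incubated at 35 °C for 16-24 hr. MIC endpoints read visually per CLSI criteria.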

Another assay concerns enterococci. As to the kind of experiment: MIC summary, enterococci (Example 5). Conditions: Enterococcus, VRE (Table 5), read-out: MIC values across isolates. Format: cell-based, E. faecalis and E. faecium. The procedure: Test and Comparator Agents: The test agents were stored at room temperature until assayed. All test agents were suspended and diluted in 100% dimethylsulfoxide (DMSO), and were ultimately tested at a final concentration of 0.06-64 μg/mL. The stock solutions were allowed to stand for at least 1 hr prior to use to auto-sterilize.
TestMedia: Test media were prepared and stored in accordance with guidelines from CLSI (4, 6, 7). […] Neisseria gonorrhoeae were evaluated by agar dilution using agar consisting of GC medium base (BD; Lot No. 4274618) supplemented with 1% IsoVitaleX (BD; Lot No. 5246843).
Broth Microdilution MC Testing (Aerobic Bacteria and Yeast): The broth microdilution assay method employed for the susceptibility testing of aerobic bacteria (excluding N. gonorrhoeae which was evaluated by agar dilution) and yeast essentially followed the procedures described by CLSI (3, 4, 7, 8) and employed automated liquid handlers to conduct serial dilutions and liquid transfers. […]
Plates were stacked 4 high, covered with a lid on the top plate, placed into plastic bags, and incubated at 35° C. for approximately 24-48 hr for all yeast isolates and 16-24 hr for aerobic bacteria. […] MIC endpoints for the test agents and control compounds were read per CLSI criteria (3, 7).

Setting [3] is: ATCC27853, P. aeruginosa MMX 103 (ATCC 27853), QC, read-out: MIC.
[4] abbreviates: ATCC49226, N. gonorrhoeae MMX 683 (ATCC 49226), QC.
Where [5] appears, read: N. gonorrhoeae MMX 6757, CTX NS.
The mark [6] stands for this setting: read-out: MIC values across isolates, N. gonorrhoeae isolates (Table 7).
[7] abbreviates: ATCC 29213 / MSSA, S. aureus MMX 101 (ATCC 29213), QC, MSSA.

The structures appear in SMILES notation. ≈ marks a conversion by molar mass, not a printed value. Read-outs that look alike come from different tables or passages of the source.

This is an account of results in patent publication US20240285571A1, “METHODS OF TREATING BONE INFECTIONS” (MICROBION CORPORATION, priority 2020, published 2024).

For `NCC[C@H](O)C(=O)N[C@@H]1C[C@H](N)[C@@H](O[C@H]2O[C@H](CN)[C@@H](O)[C@H](O)[C@H]2O)[C@H](O)[C@H]1O[C@H]1O[C@H](CO)[C@@H](O)[C@H](N)[C@H]1O` [Amikacin], the MIC in the assay with M. abscessus (MABSC) (strain AMT0068-40, M abscessus/massiliense complex) is 32 µg/mL (≈ 54.6 µM); in the assay on M. abscessus (MABSC) (strain AMT0119-7, M abscessus/massiliense complex) it was 32 µg/mL (≈ 54.6 µM).
Turning to `CCC[C@@H]1C[C@@H](C(=O)N[C@@H]([C@H]2O[C@H](SC)[C@H](O)[C@@H](O)[C@H]2O)[C@H](C)Cl)N(C)C1` [CLI], the “Mean MIC” value amounted to 0.25 µg/mL in the assay with Actinomyces turicensis and 3.66 µg/mL in the assay on S. epidermidis. In addition, the “n (% resistant)” value was 0 (0.0) n (%) in the assay on Actinomyces turicensis and 1 (20.0) n (%) in the assay on S. epidermidis.
Take `CC(C)(O/N=C(\C(=O)N[C@@H]1C(=O)N2C(C(=O)[O-])=C(C[n+]3ccccc3)CS[C@H]12)c1csc(N)n1)C(=O)O` [Ceftazidime]: the “CLSI QC range of MIC” value with P. aeruginosa [1] is “(1-4) μg/mL”.
In the case of `C[C@H]1COc2c(N3CCN(C)CC3)c(F)cc3c(=O)c(C(=O)O)cn1c23` [Levofloxacin], in the assay with S. epidermidis, the MIC came to 2.52 µg/mL and the “n (% resistant)” value is on record as 2 (40.0) n (%).
Take `OCC(S)CS.[Bi]` (stereo not shown) [MB-2B, bismuth-2,3-dimercaptopropanol]: the MIC with P. aeruginosa [2] (setting [3]) worked out at 8 µg/mL; against P. aeruginosa [2] (P. aeruginosa MMX 1381, MDR) it was 2 µg/mL; against P. aeruginosa [2] (P. aeruginosa MMX 2562, MDR) it was 4 µg/mL; in the assay on P. aeruginosa [2] (P. aeruginosa MMX 3991, MDR) it was 8 µg/mL; in the assay with P. aeruginosa [2] (P. aeruginosa MMX 4654, IMP-7), 8 µg/mL; against P. aeruginosa [2] (P. aeruginosa MMX 4697, VIM-2), 16 µg/mL. For the same compound, the MIC in the assay on N. gonorrhoeae (setting [4]) is 0.12 µg/mL; against N. gonorrhoeae (setting [5]), 0.5 µg/mL; in the assay on N. gonorrhoeae (N. gonorrhoeae MMX 6791, CIPR), 0.12 µg/mL; against N. gonorrhoeae (N. gonorrhoeae MMX 6792, CIPR), 0.12 µg/mL; in the assay with N. gonorrhoeae (N. gonorrhoeae MMX 6793, CIPR) it was 0.5 µg/mL; in the assay with N. gonorrhoeae (setting [6]), 0.12 to 0.5 µg/mL. For the same compound, the MIC in the assay with S. aureus (setting [7]) was 0.5 µg/mL; against S. aureus (MRSA, S. aureus MMX 5373) it was no more than 0.06 µg/mL; against S. aureus (MRSA, S. aureus MMX 6311) it was no more than 0.06 µg/mL; against S. aureus (MRSA, S. aureus MMX 9203), 0.25 µg/mL; against S. aureus (MRSA, S. aureus MMX 9204), no more than 0.06 µg/mL; against S. aureus (MRSA, S. aureus MMX 9205), no more than 0.06 µg/mL. Also, the MIC with S. aureus (MRSA, read-out: MIC values against MRSA, MRSA isolates (Table 5)) is less than 0.06 µg/mL; with enterococci it was 2 to 4 µg/mL.
Turning to `CC(S)C(C)S.[Bi]` (stereo not shown) [MB-6, bismuth-2,3-butanedithiol], the MIC was 1 µg/mL with P. aeruginosa [2] (setting [3]); 0.06 µg/mL in the assay with N. gonorrhoeae (setting [4]); 0.06 µg/mL against N. gonorrhoeae (setting [5]); 0.12 µg/mL against N. gonorrhoeae (N. gonorrhoeae MMX 6791, CIPR); 0.12 µg/mL with N. gonorrhoeae (N. gonorrhoeae MMX 6792, CIPR); 0.25 µg/mL with N. gonorrhoeae (N. gonorrhoeae MMX 6793, CIPR). The MIC in the assay on N. gonorrhoeae (setting [6]) is 0.06 to 0.25 µg/mL; against M. abscessus (MABSC) (MABSC strain AMT0130-8) it was 0.0625 µg/mL; against S. aureus (setting [7]) it was no more than 0.06 µg/mL; against S. aureus (MRSA, S. aureus MMX 5373), no more than 0.06 µg/mL; in the assay on S. aureus (MRSA, S. aureus MMX 6311) it was no more than 0.06 µg/mL; in the assay on S. aureus (MRSA, S. aureus MMX 9204) it was no more than 0.06 µg/mL. Also, the MIC against S. aureus (MRSA, S. aureus MMX 9205) is no more than 0.06 µg/mL; in the assay on enterococci, 0.25 to 1 µg/mL.
In the case of `C[C@@H](O)[C@H]1C(=O)N2C(C(=O)O)=C(S[C@@H]3CN[C@H](C(=O)N(C)C)C3)[C@H](C)[C@H]12` [Meropenem], in the assay on P. aeruginosa [1], the “CLSI QC range of MIC” value was “(0.25-1) μg/mL”. In addition, in the assay on Actinomyces turicensis, the “n (% resistant)” value is given as 0 (0.0) n (%). For the same compound, the MIC in the assay with Actinomyces turicensis (Schaalia turicensis) amounted to 0.25 µg/mL.
